Measurements from patent US20260152636A1, “GELLING SOLUTIONS FOR ADMINISTRATION OF COMPOUNDS TO THE INNER EAR” (Spiral Therapeutics, Inc., priority 2020, published 2026).

Assays:
MD patients = details: cited from earlier work
Hartley guinea pigs = assay: 8-week safety study, ABR threshold shift after intratympanic injection; format: in vivo, guinea pig; details: IT injection; Days 3 and 14; positive control
Text: Groups 1-3 were further divided into subgroups with varying survival times up to 8 weeks. The number of ears for the 4-week and 8-week timepoints in this study were powered to detect a 20 dB shift from baseline in the ABR threshold measurement at each of the three test frequencies (1-way t-test; independent means; apriori; power=0.95), using sample data to estimate variability from pilot studies. Auditory brainstem responses and blood sampling were collected at specified in-life timepoints, including terminus. Perilymph sampling, middle ear visualization, and histology sample preparation were performed on specified animals at terminus.

[1] = Dexamethasone levels in plasma and perilymph after single IT injection in green monkey; format: in vivo, African green monkey (Chlorocebus sabaeus); details: through Day 22
Method: Information on absorption, distribution and pharmacokinetics of the PEG-trilysine polymer formulation by otic administration were obtained from a pharmacokinetic (PK) and tolerability study conducted in the African green monkey (Chlorocebus sabaeus)
The perilymph and plasma concentrations of the PEG-trilysine polymer formulation were evaluated following a single IT injection. Perilymph and plasma levels of test and control articles were measured after 1, 10 and 22 days. Given the small study size (N=9 enrolled) and number of total ears treated, PK data are presented as descriptive statistics only.
The absorption and distribution of dexamethasone was also investigated in African green monkeys.

[2] = guinea pig, in vivo
Method: (§1) An 8-week toxicology study was performed to assess the safety and pharmacokinetics of intratympanic administration of a PEG-trilysine polymer formulation in Hartley guinea pigs. […] Hartley guinea pigs of both sexes [n=46 (23 males and 23 females) were used for the study. Following 3 to 7 days of acclimation, all guinea pigs underwent baseline ABRs tests at 4, 10, and 20 kHz.
(§2) Perilymph samples were collected at terminus at 3 days, 1 week, 4 weeks, and 8 weeks post administration.

in vivo = details: both, Hartley, guinea pig, other: intratympanic, 5 μL
Method: as §1, §2

| Molecule | Improvement in aural fullness (MD patients; IT therapy, one study) | ABR threshold shift (Hartley guinea pigs) | Plasma levels of dexamethasone over time [1] | Perilymph Mean (ng/mL) [2] | Plasma Mean (ng/mL) [2] | Incidence of TM perforation (MD patients; end of Phase 1b study, 3 mg or 12 mg single IT injection) | Safety and tolerability (MD patients; single IT injection of 12 mg, formulated with poloxamer 407, unilateral MD) | concentration at 1 week (in vivo; perilymph) | concentration at 3 days (in vivo; perilymph) | concentration at 1 week (in vivo; plasma) | concentration at 3 days (in vivo; plasma) |
| --- | --- | --- | --- | --- | --- | --- | --- | --- | --- | --- | --- |
| gentamicin | 31% | ≥ 55 dB | – | – | – | – | – | – | – | – | – |
| C[C@@H]1C[C@H]2[C@@H]3CCC4=CC(=O)C=C[C@]4(C)[C@@]3(F)[C@@H](O)C[C@]2(C)[C@@]1(O)C(=O)CO [Dexamethasone, dexamethasone] | – | – | remained within detectable limits through Day 22 | BLQ | BLQ | 3% | safe, well-tolerated | 1700 ng/mL | 109 ng/mL | 3.2 ng/mL | 5.5 ng/mL |
